Results on seven compounds are retold here after patent US10385034B2, “Flavonoid IL-17A inhibitors” (THE CLEVELAND CLINIC FOUNDATION, priority 2014, dated 2019).

The target in one experiment is T1, IL-17A-IL-17RA binding (Homo sapiens, UniProt Q96F46).
T1 construct: human IL-17RA-Fc (extracellular domain 1-322 AA fused with Fc region of human IgG1 at the C-terminus); purchased Sino Biological Inc
Briefly: IL-17A-IL-17RA binding assay (ELISA). Particulars: for IC50: in vitro inhibition assay; for Inhibition of IL-17A-IL-17RA binding: serial dilutions of compound. On the procedure:
IL-17A-IL-17RA binding assay. ELISA plates were coated with human IL-17A or IL-17E (2 μg/ml in PBS). Human IL-17RA-Fc or human IL-17RB-Fc (150 ng/ml) were added and incubated for 1 h, followed by incubation with human HRP-conjugated anti human IgG Fc secondary antibody for 1 h. ELISA were finally developed using tetramethylbenzidine substrate.

A further experiment has as its system psoriasis. The note with it: patients; cited from earlier work.
Another experiment relates to multiple sclerosis. Particulars: 6-month, placebo-controlled trial, 73 patients; cited from earlier work.
The next experiment relates to A549 cells. Put plainly: IL-17A-induced CXCL1 (Groα) production, ELISA. In kind it is cell-based, human. The note with it: A549, IL-17 100 ng/ml, 24 h. The text has this:
(§1) Reagents, cell culture and mice. Purified proteins of human IL-17A, human IL-17E (IL-25), human IL-17RA-Fc (extracellular domain 1-322 AA fused with Fc region of human IgG1 at the C-terminus), human IL-17RB-Fc (extracellular domain 1-289 AA fused with Fc region of human IgG1 at the C-terminus), human horseradish peroxidase (HRP)-conjugated IgG Fc secondary antibody were purchased from Sino Biological Inc. Human and mouse IL-17A and mouse IL-23 used for cell culture and animal injection were purchased from R&D Systems. Human mammary epithelial cells were maintained in Medium 171 plus mammary epithelial growth supplement (MEGS) purchased from Invitrogen, which contain bovine pituitary extract (BPE) (0.4% v/v), recombinant human insulin-like growth factor-I (1 μg/ml), hydrocortisone (0.5 μg/ml) and human epidermal growth factor (3 ng/ml). A549 cells were maintained in RPMI supplemented with 10% FCS and 100 U/ml penicillin and 100 μg/ml streptomycin. All mice were obtained from Jackson laboratory.
(§2) ELISA. Groα and IL-17A levels were assayed by ELISA kits (R&D systems) according to the manufacturer's instruction.

The target of experiment [1] is T2, recombinant human IL-17RA ectodomain (Homo sapiens, UniProt Q96F46).
T2 construct: The recombinant human IL-17RA ectodomain was expressed in baculovirus-infected Sf-9 cells; made in house; host or cells: baculovirus-infected Sf-9 cells
Put plainly: Fluorescence binding measurement (fluorescence quenching). The note with it: one-site total binding fit. Here is the method: Fluorescence binding measurement. The recombinant human IL-17RA ectodomain was expressed in baculovirus-infected Sf-9 cells and purified as described previously. Liu et al., Nat Commun 4, 1888 (2013). The compound A18 or A0 was obtained from NCI. The purified IL-17RA protein (final concentration at 1 uM) was mixed with various concentrations of compound A0 in the solution consisting of 20 mM Tris, pH 7.5, 150 mM NaCl, and 5% DMSO in a 96-well black flat-bottom microplate (Greiner Bio-One). The reaction mixtures were incubated at room temperature at 120 rpm for 10 min, and fluorescence intensity was measured on a 2300 EnSpire Multimode Plate Reader (PerkinElmer) with excitation (265 nm) and emission (336 nm) wavelengths for A18 or with excitation (240 nm) and emission (337 nm) wavelengths for A0. The fluorescence signal (relative fluorescence intensity) was obtained by subtracting the background fluorescence of buffer and compound A0, and plotted as a function of the concentration of compound A0. The fluorescence quenching was observed as a consequence of the protein-ligand interaction at dose-dependent concentrations of compound A0, and the binding constant of compound A0 to IL-17RA was estimated by one-site total binding fit model (GraphPad Prism).

The test system of experiment [2] is human mammary epithelial cells (HMEC). Briefly: IL-17A-induced CXCL1 (Groα) production, ELISA. It counts as cell-based. Particulars: IL-17 100 ng/ml, 24 h.
Excerpt: as §1, §2

Experiment [3] deals with IL-17F-induced gene expression. Briefly: IL-17F-induced gene expression in epithelial cells. The note with it: data not shown. It counts as cell-based, human.
The mark [4] stands for this setting: read-out: IC50, IL-17A-IL-17RA binding inhibition assay.
Where [5] appears, read: read-out: IC50, IL-17A-IL-17RA binding assay.

Entries after “also recorded” stand apart in the source; their conditions may differ. Read-outs that look alike come from different tables or passages of the source.

T1 sequence (Q96F46 33-322): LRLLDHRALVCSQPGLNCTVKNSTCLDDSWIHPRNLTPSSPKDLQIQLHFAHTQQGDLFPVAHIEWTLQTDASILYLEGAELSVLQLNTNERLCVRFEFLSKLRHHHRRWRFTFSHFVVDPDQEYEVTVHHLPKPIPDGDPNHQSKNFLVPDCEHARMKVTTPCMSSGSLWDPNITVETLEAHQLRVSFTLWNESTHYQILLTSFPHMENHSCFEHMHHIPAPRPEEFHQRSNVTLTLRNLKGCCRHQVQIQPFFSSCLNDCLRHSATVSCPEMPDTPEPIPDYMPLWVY
T2 sequence (Q96F46 33-320 limits assumed): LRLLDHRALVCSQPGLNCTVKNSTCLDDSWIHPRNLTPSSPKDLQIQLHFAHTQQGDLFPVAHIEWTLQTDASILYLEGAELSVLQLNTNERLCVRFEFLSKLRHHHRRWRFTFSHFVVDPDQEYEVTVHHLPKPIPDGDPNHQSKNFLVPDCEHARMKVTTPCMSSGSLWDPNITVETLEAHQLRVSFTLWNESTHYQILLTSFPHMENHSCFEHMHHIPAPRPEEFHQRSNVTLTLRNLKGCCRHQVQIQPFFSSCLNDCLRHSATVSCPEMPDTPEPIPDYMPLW

In the case of `Oc1cc(O)c2ccc(-c3ccc(O)c(O)c3)[o+]c2c1` [luteolinidin, reference compound], the IC50 at IL-17A-IL-17RA binding (setting [4]) came out at 198 nM.
Consider `Oc1ccc2cc(O)c(-c3ccc(O)c(O)c3)[o+]c2c1` [A18Δ5OH], for which, on IL-17A-IL-17RA binding (setting [5]), the concentration for half-maximal inhibition (IC50) was above 30000 nM.
With “secukinumab: Anti-IL17A antibody (Cosentyx/secukinumab from Novartis)”, in the experiment with psoriasis, the “Efficacy for psoriasis” value is “extreme efficacy” and the “Responding rate in psoriasis” value was “greater than 85%”. For the same compound, in the experiment on multiple sclerosis, the MS-type brain lesions entry was “significantly lowered” and the Relapse rates result is on record as “trend toward reduced”.
As to `O=C(O)c1ccc(O)c(O)c1` [photocatechuic acid, reference compound], the “Inhibition of IL-17A-IL-17RA binding” value on IL-17A-IL-17RA binding was “greatly reduced inhibitory activity”.
On to `OC[C@H]1O[C@@H](Oc2cc3c(O)cc(O)cc3[o+]c2-c2ccc(O)c(O)c2)[C@H](O)[C@@H](O)[C@@H]1O` [cyanidin-3-O-glucoside, reference compound], for which, at IL-17A-IL-17RA binding (setting [4]), the half-maximal inhibitory concentration (IC50) came to 96.4 nM.
As for `Oc1cc(O)c2c(c1)O[C@@H](c1ccc(O)c(O)c1)[C@H](O)C2` [A0, (2S,3R)-2-(3,4-dihydroxyphenyl)-3,4-dihydro-2H-chromene-3,5,7-triol], the “IL-17A-mediated CXCL1 production” value (in the experiment on A549 cells; in experiment [2]) was “greatly inhibited” throughout. The “Binding constant to IL-17RA” value in experiment [1] was “in the same range as A18”. Besides, at IL-17A-IL-17RA binding (setting [4]), the IC50 was 956 nM. Also, the “Inhibition of IL-17A-IL-17RA binding” value at IL-17A-IL-17RA binding is “excellent inhibition efficacy; also recorded: great inhibition efficacy”. Moreover, in experiment [3], the IL-17F-induced gene expression entry is given as “able to block”.
Turning to `Oc1ccc(-c2[o+]c3cc(O)cc(O)c3cc2O)cc1` [pelargonidin, reference compound], the IC50 at IL-17A-IL-17RA binding (setting [5]) was above 100000 nM.
